The results in this text go back to US6897208B2, “Benzimidazoles” (Aventis Pharmaceuticals Inc., priority 2001, dated 2005).

System in one series: not given
Assay: not given
Details: not given
In the case of `CSc1cc(-c2nc3ccccc3[nH]2)n[nH]1` [Example 240, (Benzoimidazol-2-yl)-5-methylthio-3-pyrazole], the melting point came out at 242 °C.
The same measure, in the same setting: under `COc1cc2nc(-c3n[nH]cc3NC(=O)C3CC3)[nH]c2cc1Cl` [Example 258(a), Cyclopropanecarboxylic acid [3-(6-chloro-5-methoxy-1H-benzoimidazol-2-yl)-1H-pyrazol-4-yl]-amide] stands 225 to 226 °C; under `CCOc1cc(-c2nc3ccccc3[nH]2)n[nH]1` [Example 237, 2-(5-Ethoxy-1H-pyrazol-3-yl)-1H-benzoimidazole], 217 to 219.5 °C; under `CSc1cc(-c2nc3ccccc3[nH]2)no1` [Example 238, 2-(5-Methylsulfanyl-isoxazol-3-yl)-1H-benzoimidazole], 179 to 181 °C.
The same measure, in the same setting: for `Cc1cc(-c2nc3ccccc3[nH]2)n[nH]1` [Example 236, 2-(5-Methyl-1H-pyrazol-3-yl)-1H-benzoimidazole] the value was 322 to 324 °C.

For the next series, the target named is T1, human KDR enzyme (Homo sapiens, UniProt P35968).
T1 construct: The cytoplasmic domain of human KDR enzyme is cloned in the form of a GST fusion; GST; made in house; host or cells: SF21 insect cells (baculovirus, pFastBac)
T1 sequence (P35968 786-1356 limits assumed): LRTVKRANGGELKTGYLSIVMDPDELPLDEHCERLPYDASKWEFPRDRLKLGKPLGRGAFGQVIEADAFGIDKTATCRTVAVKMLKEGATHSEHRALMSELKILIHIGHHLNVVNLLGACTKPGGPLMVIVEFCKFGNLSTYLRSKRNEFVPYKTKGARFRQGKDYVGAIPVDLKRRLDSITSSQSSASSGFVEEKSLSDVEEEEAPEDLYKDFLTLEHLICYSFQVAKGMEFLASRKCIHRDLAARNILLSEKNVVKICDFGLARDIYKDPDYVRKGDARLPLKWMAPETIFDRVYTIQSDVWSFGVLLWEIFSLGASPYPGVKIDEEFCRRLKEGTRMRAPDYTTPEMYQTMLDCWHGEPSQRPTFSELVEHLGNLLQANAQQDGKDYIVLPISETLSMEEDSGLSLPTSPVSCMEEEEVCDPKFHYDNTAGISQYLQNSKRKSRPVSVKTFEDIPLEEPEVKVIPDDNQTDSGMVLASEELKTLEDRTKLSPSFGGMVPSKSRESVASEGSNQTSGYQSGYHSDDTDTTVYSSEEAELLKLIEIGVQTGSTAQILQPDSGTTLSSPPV
The series can be described thus: Phosphorylation of PLCγ substrate by the enzyme KDR in vitro (flashplate technique). The following applies: read-out: IC50 (μM) on inhibition of the phosphorylation of PLCγ by KDR. In kind it is biochemical. How it is done: 1. Inhibitory Effects of Compounds on KDR
The inhibitory effect of the compounds is determined in a test of phosphorylation of a substrate by the enzyme KDR in vitro by the flasplate technique (96-well plate, NEN).
The cytoplasmic domain of human KDR enzyme is cloned in the form of a GST fusion into the baculovirus expression vector pFastBac. The protein is expressed in the SF21 cells and purified to about 60% homogeneity.
The kinase activity of KDR is measured in 20 mM MOPS, 10 mM MgCl2, 10 mM MnCl2, 1 mM DTT, 2.5 mM EGTA, 10 mM β glycerophosphate, pH 7.2 in the presence of 10 mM MgCl2, 100 μM Na3VO4, 1 mM NaF. 10 μl of the compound are added to 70 μl of kinase buffer containing 100 ng of KDR enzyme at 4° C. The reaction is initiated by adding 20 μl of solution containing 2 μg of substrate (fragment SH2-SH3 of PLCγ expressed in the form of a GST fusion protein), 2 μCi γ33P[ATP] and 2 μM cold ATP. After incubating for 1 hour at 37° C., the reaction is quenched by adding 1 volume (100 μl) of 200 mM EDTA. The incubation buffer is removed and the wells are washed three times with 300 μl of PBS. The radioactivity is measured in each well using a Top Count NXT instrument (Packard).
Background noise is determined by measuring the radioactivity in wells in quadruplet containing radioactive ATP and the substrate alone.
An activity control is measured in wells in quadruplet containing all the reagents (γ33P-[ATP], KDR and the substrate PLCγ) and in the absence of compound.
The inhibition of the KDR activity with the compound of the invention is expressed as a percentage of inhibition of the control activity determined in the absence of compound.
The compound SU5614 (Calbiochem) (1 μM) is included in each plate as inhibition control.
The IC50 values for the compounds are calculated by plotting the dose-response curves. The IC50 corresponds to the concentration of compound that induces a 50% inhibition of the kinase activity.
Turning to “2-(1H-Indazol-3-yl)-1H-benzimidazole-5-carboxylic acid N-(2-furfuryl)amide [Example 12]”, the IC50 stood at 0.16 µM.
For the compound “2-(1H-Indazol-3-yl)-1H-benzimidazole-5-carboxylic acid N-morpholinoamide [Example 7]”, the IC50 is 0.72 µM.
As for “2-(1H-Indazol-3-yl)-1H-benzimidazole-5-carboxylic acid N-pyrrolidinoamide [Example 9]”, the IC50 stood at 0.35 µM.
The same measure, in the same setting: under “2-(1H-Indazol-3-yl)-1H-benzimidazole-5-carboxylic acid N-(N′-methyl-piperazino)amide [Example 8]” stands 0.67 µM.
